Experimental data published in patent publication EP3290438A1, “FOOD ALLERGEN EXTRACTS AND METHODS OF PRODUCING AND USING THE SAME” (CONSEJO SUPERIOR DE INVESTIGACIONES CIENTIFICAS, priority 2016, dated 2018).

T1: Gad m 1 peptide 14 (12-mer overlapping synthetic peptide) (Atlantic cod)
T1 construct: Immobilized on the SPOT membrane, about 10 nmol per spot
T1 peptide: HKAFFTKVGLAA

T2: Gad m 1 peptide 15 (12-mer overlapping synthetic peptide) (Atlantic cod)
T2 construct: Immobilized on the SPOT membrane, about 10 nmol per spot
T2 peptide: AFFTKVGLAAKS

T3: Gad m 1 peptide 12 (12-mer overlapping synthetic peptide) (Atlantic cod)
T3 construct: Immobilized on the SPOT membrane, about 10 nmol per spot
T3 peptide: GSFDHKAFFTKV

T4: Gad m 1 peptide 13 (12-mer overlapping synthetic peptide) (Atlantic cod)
T4 construct: Immobilized on the SPOT membrane, about 10 nmol per spot
T4 peptide: FDHKAFFTKVGL

B1: rGad m 1 wt, amyloid fibrils (formed in 5 mM EDTA) (other)
chain: AFAGILNDADITAALAACKAEGSFDHKAFFTKVGLAAKSSADIKKVFEIIDQDKSDFVEEDELKLFLQNFSAGARALSDAETKVFLKAGDSDGDGKIGVDEFGAMIKA
notes: Same chain as the wt monomer, in the amyloid state; also called wt-F; rGad m 1 amyloids; not shown: N-terminal histidine tag of the pET15b construct

Tests used:
[1] = tested on: IgE in sera from fish-allergic patients; test: Peptide array (SPOT) immunoassay, IgE binding; set-up: species or system human; conditions: sera from ten fish-allergic patients (groups S-I, S-II), 1/10 dilution; 10 nmol/spot
Text: It was first characterized the sequence elements to address how amyloid formation contributes to the IgE reactivity of Gad m 1. A set of 12-mer overlapping synthetic peptides with an offset of 2 that correspond to the sequence of Gad m 1 was used in an array-based immunoassay (Fig. 6).
This peptide length and surface density (10 nmol/spot) ensures the preservation of amyloid formation (which is conventionally limited to 6 residues), and differs from previous microarrays assays using a 15-mer with an offset of 3 (Perez-Gordo, M. et al. Mol Nutr Food Res 57, 1283-1290, (2013)).
The peptide membranes were assayed using the sera from ten patients who are allergic to fish (Figs. 1, 2). The IgE binding intensity was variable among the tested sera; however, it was possible to identify four major binding regions (I-IV) and two major groups of sera (S-I: S2, S3, S4, S7 and S8; S-II: S1, S5, S6, S12 and S13). […] Of these four regions, region I overlaps the sequence predicted as the cross-β sheet forming (adhesive) segment in helix A, whereas regions III and IV overlap the immunologically reactive sites located on the junctions between the AB and CD domains (residues 33-44) and between the CD and EF domains (residues 65-74) (Martinez, J. et al. Swiss Med Wkly 145, (2015)). Nevertheless, the reactivity of the Ca^2+-binding loop of the EF domain (residues 88-96) and of the C-terminal (residues 95-109) regions was not detected by these sera, as probed by both IgE and IgG4 binding (Fig. 1d) (Perez-Gordo, M. et al. Int Arch Allergy Imm 157, 31-40, (2012)). It merits comment that IgG4 reactivity, which is considered as a protective response in allergy, is largely detected in region IV for both sera groups (Perez-Gordo, M. et al. Int Arch Allergy Imm 157, 31-40, (2012)).
Peptide arrays (SPOT). Dodecapeptides spanning the whole sequence of Gad m 1, with an overlap of ten residues, were solid-phase synthesized and immobilized (≈10 nmol per spot) on an Amino-PEG500-UC540 sheet at the National Centre for Biotechnology (CNB-CSIC, Madrid). Before use, the membranes were rinsed with ethanol, washed three times with TBS (25 mM Tris-HCl, pH 7.5, containing 137 mM NaCl and 2.7 mM KCI), and incubated in TBS containing 1% BSA (w/v) and 2 mM EDTA for 1 h. The membranes were then probed for 2 h with sera from patients who are allergic to fish (1/10 dilution) and the anti-amyloid fibril OC antibody (AB2286 Merck Millipore, 1/2000 dilution), prepared in TBST (TBS containing 0.05% Tween-20) supplemented with 0.5% BSA (w/v) or with rGad m 1 chains (2.5 µM) in TBS. After extensive washes with TBST, a 30 min incubation with either horseradish peroxidase-labeled anti-human IgE (Abcam ab99806, 1/2000 dilution), anti-human IgG4 (Abcam ab99823, 1/4000 dilution), goat anti-rabbit IgG (Sigma, 1/5000 dilution) or anti-6X His tag® antibody (Abcam ab18184, dilution 1/1000) was performed. The signal was developed with the ECL-Western-blotting reagent (Bio-Rad) and detected with a ChemiDoc XRS instrument (Martinez, J. et al. Swiss Med Wkly 145, (2015)). When required, the membranes were regenerated by sequential incubation with TBS containing 8M urea, 1% SDS and 0.5% β-mercaptoethanol for 30 min at 55 °C and three times with acetic acid/ethanol/Milli-Q water (10:50:40). Regions were considered major allergenic epitopes when at least two overlapping peptides were involved. […]

[2] = Peptide array membranes probed with thioflavin T (ThT); assay type: physicochemical
Protocol: The presence of amyloid folds was then assayed using the conformation-selective OC antibody, which detects oligomer and fibril assemblies produced during the protein fibrillization process and the amyloid probe thioflavin T (ThT) (Kayed, R. et al. Molecular neurodegeneration 2, 18, (2007)). […] Of these regions, peptides 2 and 41 overlap the adhesive segments in helix A and E, predicted by the ZipperDB algorithm (Goldschmidt, L., et al. Proceedings of the National Academy of Sciences of the United States of America 107, 3487-3492, (2010)), peptides 12-16 and 34 lie over the IgE-binding regions III and IV, peptide 24 contains part of the Ca^2+-binding site of domain CD, and peptide 49 corresponds to a previously described epitope groups (Perez-Gordo, M. et al. Mol Nutr Food Res 57, 1283-1290, (2013)) (Fig. 2 and Fig. 7). […] It must be noted that peptides containing the helix C sequence, which was predicted to be an adhesive segment, were not detected by either the OC or ThT binding assays.

[3] = target: T1, Gad m 1 peptide 14 (12-mer overlapping …); test: SPOT peptide array incubated with rGad m 1 chains (2.5 µM), anti-6XHis detection
[4] = target: T2, Gad m 1 peptide 15 (12-mer overlapping …); test: as above
[5] = target: T3, Gad m 1 peptide 12 (12-mer overlapping …); test: as above
[6] = target: T4, Gad m 1 peptide 13 (12-mer overlapping …); test: as above

Molecule	IgE binding [1]	other results
1: 12-mer overlapping synthetic peptide of the Gad m 1 sequence, SEQ ID NO: 1 (MAFAGILNDADI) [compound 1]	only recognized by the sera group S-II	
6: 12-mer overlapping synthetic peptide of the Gad m 1 sequence, SEQ ID NO: 6 (DITAALAACKAE) [compound 6]	only recognized by the sera group S-II	
7: 12-mer overlapping synthetic peptide of the Gad m 1 sequence, SEQ ID NO: 7 (TAALAACKAEGS) [compound 7]	only recognized by the sera group S-II	
12: 12-mer overlapping synthetic peptide of the Gad m 1 sequence, SEQ ID NO: 12 (GSFDHKAFFTKV) [compound 12]		ThT fluorescence emission [2]: increased fluorescence emission
18: 12-mer overlapping synthetic peptide of the Gad m 1 sequence, SEQ ID NO: 18 (GLAAKSSADIKK) [compound 18]	variable recognition by the distinct sera	
19: 12-mer overlapping synthetic peptide of the Gad m 1 sequence, SEQ ID NO: 19 (AAKSSADIKKVF) [compound 19]	variable recognition by the distinct sera	
B1		binding result [3]: binds; binding result [4]: binds; binding result [5]: binds; binding result [6]: binds
